Earlier results, collected in PubChem BioAssay AID1259409 (Chemical Carcinogenesis Research Information System (CCRIS), 2018).

Tested on: rodent chemically induced tumor inhibition, incidence and multiplicity
Assay: CCRIS tumor inhibitor studies

SMILES: CCCC/C=C\C=C/O[C@@H](CC)CCC(CCC)CCCCCCCC(=O)O[C@]1(O)[C@]2(O)O[C@H](CO[C@H]3O[C@H](CO)[C@H](O)[C@H](O)[C@H]3O)[C@H](O)[C@@]1(O)O2 (some centres not stated)
- tumour outcome (control, treated, inhibition, significance) (Carcinogen: 7,12-DIMETHYLBENZ[A]ANTHRACENE, 57-97-6, Dose [Inhibitor]: 0, 85 NMOL IN 0.1 ML ACETONE 2/WK FOR 20 WK APPLIED 1 HR PRIOR TO EACH PROMOTER DOSE (STUDY DURATION: 21 WK), Route [Inhibitor]: DERMAL, Species: MOUSE, Strain/Sex: ICR/FEMALE, Target Tissue: Type of Lesion: SKIN: PAPILLOMA, Dose [Carcinogen]: 390 NMOL IN 0.1 ML ACETONE ONCE, Promoter: 12-O-TETRADECANOYLPHORBOL-13-ACETATE, 16561-29-8): 100%, 68%, 32%, p<0.05

SMILES: CC#C[C@]1(O)CC[C@H]2[C@@H]3CCC4=CC(=O)CCC4=C3[C@@H](c3ccc(N(C)C)cc3)C[C@@]21C
- tumour outcome (control, treated, inhibition, significance) (Carcinogen: 7,12-Dimethylbenz(a)anthracene (57-97-6), Dose [Inhibitor]: 10 mg administered daily for 28 days, Route [Inhibitor]: Subcutaneous, Species: Rat, Strain/Sex: Sprague-Dawley/Female, Target Tissue: Type of Lesion: Mammary gland: Adenocarcinoma and papillary carcinoma, Dose [Carcinogen]: 10 mg/kg once at 50 days of age, Promoter: None): 12/13 (92%), 13/14 (93%), 0% ns
